Test results: patent US20230190660A1, “ENCAPSULATED PHARMACEUTICAL COMPOSITIONS, RELATED METHODS OF MAKING, AND RELATED METHODS OF TREATMENT” (PATH, priority 2021, published 2023)

Experiments:
[1] = tested on: blood glucose levels; assay: Glucose lowering in STZ diabetic rodent model; assay type: in vivo, Sprague Dawley rodents; details: SC
Description: Briefly, the male Sprague Dawley rodents (200-250 grams) are fasted 4 hours before given 65 mg/kg intraperitoneal (IP) streptozotocin (STZ) to induce diabetes and randomized into treatment groups based on the post-STZ (˜1 week) baseline glucose levels (see TABLE 10). Only rodents with hyperglycemia (glycose levels […]) are used in the study. Rodents are housed on a 12-hour light/dark cycle with no more than 2 rats per cage depending on size and acclimatized for not less than 5 days. Blood glucose levels are measured using calibrated Glucocard Vital glycometers (Arkray, Minneapolis, Minn.) and levels are reported as mg/dL. For each timepoint, blood (<5 uL) is acquired from a tail snip and directly applied to a glucose test strip. Data for each quantitative timepoint is presented as the average+/−SEM (standard error of the mean). Differences between vehicle control and each treatment groups are determined by Student's t-test using GraphPad Prism (current version) with an alpha threshold of 0.05.
Insulin and blood glucose levels were measured before administration, at 30 minutes, 60 minutes, 90 minutes, 2 hours, 4 hours, 8 hours, and 24 hours after dosing.

[2] = Static gastrointestinal use testing (GUT) model, gastric fluid; details: 30 minutes at 37° C.
Description: The purpose of this evaluation was to test whether the bile-insulin ion-pair encapsulated within the resistant starch polymer is protected from pH and enzymatic degradation encountered in the gastrointestinal compartments. Since the in vivo feasibility of insulin FDTs is proposed in a diabetic rodent model, we scaled down the size of the FDTs based on limited size of the oral cavity in rats. We also included commercially available gelatin oral capsules fit for oral delivery to rats (FIGS. 12A and 12B). Biorelevant dissolution media simulating the pH and enzymatic conditions in the different sections of gastrointestinal tract, such as fasted state simulated gastric fluid (FASSFG), and intestinal fluid in the duodenum and jejunum (TABLE 7) were generated following the composition recipe reported by Jantratid et al. (2009).
Samples were incubated in the different fluid media maintained at 37° C. and at the 30-minute time point, removed and tested for insulin content. Unformulated insulin was used as a control for comparative evaluation (FIGS. 13A and 13B).

[3] = tested on: glucose levels; assay: Pilot study: glucose levels in rats after oral ion-pair formulations or subQ insulin; assay type: in vivo; details: subQ, 5 IU/kg
Description: (§1) The present Example describes a) selection of the dosage presentation for the lead ion-pair and the dose (see TABLE 8, FIGS. 4 and 14A-14D) and b) validation of the lead ion-pair formulation in their ability to lower glucose levels upon oral administration of the formulations (see FIGS. 15A-15D). In part a) of the present Example, we compared the capsule and FDT presentation formats for both ion-pair formulations. We also included β-CD-encapsulated ion-pair complex to see whether the encapsulation of ion-pair within β-CD offers further improvement in absorption of insulin. Liquid insulin given subcutaneously (subQ) was used a comparator in both studies.

[4] = tested on: glucose levels; assay: Confirmation study: glucose levels in rats, additional doses; assay type: in vivo; details: subQ, 5 IU/kg
Description: as §1

For insulin, the “time after administration within which glucose levels rise” value [1] was at most 4 h, the glucose lowering effect ([1]; compared to diabetic rodent levels) was over 60% and the “degradation in the presence of gastric fluid” value [2] was “degraded almost completely”. For the same substance, the glucose levels ([3]; late time point (T=8 hours), similar to T=0) was 600 mg/dL, the glucose level ([3]; within the first hour (from 600 mg/dL)) was 100 mg/dL and the “lowering of glucose levels” value ([3]; within the first hour of administration) was “about 80%”. For the same substance, the “drop in glucose levels” value ([4]; T=1 hour) was about 80% and the glucose level ([4]; T=1 hour (from 600 mg/dL)) was about 100 mg/dL.
